This experiment relates to scopolamine-induced impairment of passive avoidance response. As to the kind of experiment: passive avoidance test, scopolamine-induced impairment. The class given is in vivo, Male Sprague Dawley rats. Here is the method:
Male Sprague Dawley rats weighing 175-200 g were used. The animals were kept in a regulated environment (20 ± 1°C, 50-55% humidity and 12 hours light-dark cycle, light on at 7.00 a.m.) and maintained with standard pellet diet. The apparatus used for the passive avoidance test was composed of a dark compartment (30x30x30 cm) with a grid floor and a compartment (30x30x30 cm) illuminated from above by a 20 W daylight lamp, the 2 compartments being separated by a guillotine-type door (10x8 cm). Scrambled electric shocks were delivered to the grid floor by an isolated stimulator.
Rats were divided in groups of 10 animals. • a) Training: each rat was placed gently in the lighted compartment and 10 sec later the door was opened. As soon as the rat had moved into the dark compartment and the door had been shut, a 1.6 mA foot-shock was applied for 1 sec. The rat was immediately removed from the apparatus and returned to the home cage. • b) Retention: the retention test was carried out 24 hours later by an observer unaware of the given treatment. Each rat was placed into the lighted compartment again and the step-through latency was recorded. The test is stopped when the rat enters the dark compartment or when it fails to do so in […] 180 sec.

The mark [1] stands for this setting: step-through latency in retention test 24 hours after training, test compound 0.03 mg/kg i.p. 15 min before scopolamine 0.75 mg/kg i.p., which was given 30 min before training, mean ± S.E.M, 10 animals, cut-off 180 sec.

Structures can show the parent of a compound that is named as a salt. Marks after values point to notes of the source that are not given here.

On to `CN1[C@@H]2CC[C@H]1C[C@@H](NC(=O)n1c(=O)[nH]c3ccccc31)C2` [Compound 1, N-(endo-8-methyl-8-azabicyclo[3.2.1]oct-3-yl)-2,3-dihydro-2-oxo-1H-benzimidazole-1-carboxamide], for which the “LATENCY” value runs as follows: (step-through latency in retention test 24 hours after training, test compound 0.01 mg/kg i.p. 15 min before scopolamine 0.75 mg/kg i.p., which was given 30 min before training, mean ± S.E.M, 10 animals, cut-off 180 sec) 136 ± 16.0 s; under setting [1], 109 ± 17.0 s.

Take `CN1[C@@H]2C[C@@H](OC(=O)[C@H](CO)c3ccccc3)C[C@H]1[C@@H]1O[C@@H]12` [Scopolamine, scopolamine, reference compound]: the “LATENCY” value (rat, in vivo, ip, 0.75 mg/kg) worked out at 66 ± 18.7 s.

Turning to `CCn1c(=O)n(C(=O)N[C@H]2C[C@H]3CC[C@@H](C2)N3C)c2ccccc21` [Compound 5, N-(endo-8-methyl-8-azabicyclo[3.2.1]oct.-3-yl)-2,3-dihydro-3-ethyl-2-oxo-1H-benzimidazole-1-carboxamide], under setting [1], the “LATENCY” value is 113 ± 17.0 s.

In the case of `CC(C)n1c(=O)n(C(=O)N[C@H]2C[C@H]3CC[C@@H](C2)N3C)c2ccccc21` [Compound 6, N-(endo-8-methyl-8-azabicyclo[3.2.1]oct.-3-yl)-2,3-dihydro-3-(1-methyl)ethyl-2-oxo-1H-benzimidazole-1-carboxamide, hydrochloric acid salt], the “LATENCY (SEC)” value under setting [1] was 140 + 16 ** SEC.

Source of the values: patent publication EP0523013B1, “Use of benzimidazoline-2-oxo-1-carboxylic acid derivatives in the treatment of organic mental diseases” (BOEHRINGER INGELHEIM ITALIA S.p.A., priority 1991, dated 1993).
